Experimental data as given in PMC9917735, “Optimization of the Hemolysis Assay for the Assessment of Cytotoxicity” (International Journal of Molecular Sciences, 2023).
≈ marks a conversion by molar mass, not a printed value. Like-named read-outs stand apart in the source and are kept apart here. Residues, ends and D or L forms follow the SMILES beside them. *: point of attachment. Hexanoyl = CCCCCC(=O)*

How the values were obtained:
[1] = test system: washed human erythrocytes; assay: Hemolysis assay, washed human erythrocytes
[2] = test system: washed human erythrocytes; assay: Flow cytometry of treated erythrocytes with live/dead amine-reactive stain; format: cell-based; settings: washed human erythrocytes treated 60 minutes, AMPs 100 μM, amine-reactive dye 488, flow cytometry 533/30 nm
Method: Briefly, a 1% washed erythrocyte solution was diluted to ~10^5 cells/mL and 0.4% Trypan blue (1:1 ratio) was added before 10 μL of the stained cell suspension was added to the Countess cell counting chamber slide. After a 30 s incubation, the slide was inserted into the instrument for automatic cell counting.
The Countess II automated cell counter (see above) was used to adjust the negative control sample to ~10^5 cells/mL and to subsequently dilute all samples by the same factor. Then, 0.5 μL of live/dead amine-reactive dye 488 (Fisher Scientific, Waltham, MA, USA) was added to 0.5 mL cell suspension and incubated for 30 min protected from light. Subsequently, the samples were washed twice with PBS pH 7 containing 1% bovine serum albumin (BSA), and finally resuspended in PBS pH 7 with 1% BSA. Cells were next counted, and the fluorescence measured using the 533/30 nm filter in an Accuri C6 flow cytometer (BD Biosciences, Franklin Lakes, NJ, USA).

E. coli = settings: E. coli
human whole blood = settings: for Calculated hemolysis ratio: human whole blood, peptides 100 μM, 60 min 37 °C, neg. PBS, 3 x 2 replicates
rabbit erythrocytes = settings: AMPs 100 μM, 1 hour 37 °C, pos. 10% Triton X-100, neg. PBS, 3 x 2 replicates
From the text: (§1) Cytotoxicity studies are important during characterization of novel compounds or materials intended for interactions within human biological systems in vivo. Evaluation of the extent to which the compound induces disruption of the membrane of erythrocytes (red blood cells), thereby causing release of cellular content, often constitutes an initial step in such cytotoxicity assessments. The assay used in this context is generally referred to as the hemolysis assay, which has the advantages of being cheap, accessible, and simple to perform. Blood is drawn from a human or an animal, and next, the washed erythrocytes are incubated together with the compound or material under investigation. If the compound causes hemolysis, hemoglobin (along with other cellular constituents) will be released into the supernatant.
(§2) Blood from mice, rats, and rabbits was provided by the Department of Comparative Medicine at Oslo University Hospital (Marianne Aannestad). For mice and rats, the blood was collected from the heart by using 25 G and 21 G needles, respectively, whereas for rabbits, the blood was collected by free bleed through the ear using a yellow neoflon (24 G). All animals were wild type and anesthetized prior to the procedure.
(§3) All blood was collected in Lithium Heparin tubes 4 mL (Greiner Bio-One, Kremsmünster, Austria) or Coagulation sodium citrate 3.2% tubes 3 mL (Greiner Bio-One).
(§4) AMP 2 contained an N-terminal hexanoic acid moiety, whereas all peptides contained amidated C-termini. These three peptides were synthesized by Genscript Inc. (Piscataway, NJ, USA), and stock solutions of 1 mg/mL were made from the purchased powders. […] All peptides were diluted to yield a 100 μM final concentration in the hemolysis assays.
(§5) Triton X-100 (T8787) and Tween-20 (P2287) detergents were purchased from Sigma Aldrich and diluted to obtain 10% stock solutions by weighing (w/v). A sodium Dodecyl Sulfate (SDS) 10% solution was purchased from Invitrogen (Waltham, MA, USA, 15553027). All subsequent dilutions annotated in figures were made from these stocks.
(§6) As soon as possible after phlebotomy, the blood samples were centrifuged at 1700× g for 5 min. The supernatant was removed by aspiration and 2 mL of PBS pH 7 was added. The washing step was repeated three times or until the supernatant was clear. After final aspiration, the remaining pellet was diluted 1:100 in PBS pH 7 to obtain a 1% erythrocyte suspension (or 1:100, 1:50, and 1:20 for assays testing the effect of erythrocyte concentration). For experiments using whole blood, the washing steps were not performed, but downstream experimentation was identical. For experiments performed with 96-well plates, 50 μL of test compound, water, or detergent were mixed with 50 μL of blood sample (1% erythrocyte suspension or whole blood). For experiments using larger volumes, 250 μL of test compound, water, or detergent were mixed with 250 μL blood sample in an Eppendorf tube. Samples were subsequently incubated at 37 °C for 60 min (or 15, 30, 60, 90, or 120 min for assays evaluating the effect of incubation time). After incubation, the plates/tubes were centrifuged at 1700× g for 5 min, and then 50 μL of the supernatants were transferred to transparent, flat-bottom 96-well plates (Anicrin, A013418). Finally, absorption was measured at 405, 530, and 570 nm in a Victor Nivo Multimode microplate reader (Perkin Elmer, Waltham, MA, USA).

mouse erythrocytes = settings: AMPs 100 μM, 1 hour 37 °C, pos. 10% Triton X-100, neg. PBS, 3 x 2 replicates
From the text: as §1, §2, §3, §4, §5, §6

rat erythrocytes = settings: AMPs 100 μM, 1 hour 37 °C, pos. 10% Triton X-100, neg. PBS, 3 x 2 replicates
From the text: as §1, §2, §3, §4, §5, §6

rabbit whole blood = settings: for Hemolysis ratio: rabbit whole blood, AMPs 100 μM, 1 hour 37 °C, 3 x 2 replicates
From the text: as §1, §2, §3, §4, §5, §6

With `CCCCCC(=O)N[C@@H](CCSC)C(=O)N[C@@H](CCCCN)C(=O)N[C@@H](CCCNC(=N)N)C(=O)N[C@@H](CCCCN)C(=O)N[C@@H](CCCCN)C(=O)N[C@@H](CCCCN)C(=O)N[C@H](C(=O)N[C@@H](CC(C)C)C(=O)N[C@H](C(=O)N[C@@H](CCCCN)C(=O)N[C@@H](CCCCN)C(=O)N[C@H](C(=O)N[C@@H](CC(C)C)C(=O)N[C@@H](CCCCN)C(=O)N[C@@H](CC(C)C)C(=O)N[C@@H](CCCCN)C(=O)N[C@@H](CO)C(=O)N[C@@H](CO)C(=O)N[C@@H](C)C(=O)N[C@@H](Cc1ccc(O)cc1)C(N)=O)C(C)C)[C@@H](C)CC)[C@@H](C)CC` [AMP 2] (Hexanoyl-MKRKKKILIKKVLKLKSSAY-NH2) the Calculated hemolysis ratio ([1]; 1% washed human erythrocytes, OD 530 nm, peptides 100 μM, 60 min 37 °C, pos. 10% Triton X-100, neg. PBS, 3 x 2 replicates) was 5.2 ± 3%, the Calculated hemolysis ratio ([1]; 1% washed human erythrocytes, OD 570 nm, peptides 100 μM, 60 min 37 °C, pos. 10% Triton X-100, neg. PBS, 3 x 2 replicates) was 4.8 ± 6.6% and the “Calculated Hemolysis (%)” value ([1]; 2% pooled human erythrocytes, AMPs 100 µM, 60 min 37 °C, 405 nm, pos. 10% Triton X-100, neg. PBS, 3 x 2 replicates) was 5.6 ± 0.8%. For the same molecule, the “Calculated Hemolysis (%)” value ([1]; 5% pooled human erythrocytes, AMPs 100 µM, 60 min 37 °C, 405 nm, pos. 10% Triton X-100, neg. PBS, 3 x 2 replicates) was 5.0 ± 3.3%, the Calculated hemolysis ratio ([1]; Table 1: 1% human erythrocytes, 100 µM, 60 min 37 °C, OD 405 nm, pos. 10% Triton X-100, neg. PBS, mean ± SD, 3 experimental x 2 technical replicates) was 8.5 ± 1.4% and the Calculated hemolysis ratio ([1]; Table 2: pooled blood from all 10 individuals, 1% erythrocytes, AMPs 100 µM, 60 min 37 °C, 405 nm, pos. 10% Triton X, neg. PBS, 3 x 2 replicates) was 12.4 ± 3.1%. For the same molecule, the “Calculated Hemolysis (%)” value ([1]; Table 3: 1% pooled human erythrocytes, AMPs 100 µM, 60 min 37 °C, 405 nm, pos. 10% Triton X-100, neg. PBS, 3 x 2 replicates) was 12.4 ± 3.1%, the Calculated hemolysis ratio ([1]; Table 4: incubation 60 min, 37 °C, 1% human erythrocytes, AMPs 100 µM, 405 nm, pos. 10% Triton X-100, neg. PBS, 3 biological x 2 technical replicates) was 7.8 ± 1.3% and the Calculated hemolysis ratio ([1]; Table 6: 1% washed human erythrocytes, OD 405 nm, peptides 100 μM, 60 min 37 °C, pos. 10% Triton X-100, neg. PBS, 3 x 2 replicates) was 8.2 ± 1.4%. It also gave a Calculated hemolysis ratio ([1]; human individual # 1, 1% erythrocytes, AMPs 100 µM, 60 min 37 °C, 405 nm, pos. 10% Triton X, neg. PBS, 3 x 2 replicates) of 8.2 ± 1.3%, a Calculated hemolysis ratio ([1]; human individual # 2, 1% erythrocytes, AMPs 100 µM, 60 min 37 °C, 405 nm, pos. 10% Triton X, neg. PBS, 3 x 2 replicates) of 10 ± 0.7% and a Calculated hemolysis ratio ([1]; human individual # 3, 1% erythrocytes, AMPs 100 µM, 60 min 37 °C, 405 nm, pos. 10% Triton X, neg. PBS, 3 x 2 replicates) of 9.8 ± 0.8%. It also gave a Calculated hemolysis ratio ([1]; human individual # 4, 1% erythrocytes, AMPs 100 µM, 60 min 37 °C, 405 nm, pos. 10% Triton X, neg. PBS, 3 x 2 replicates) of 10.4 ± 0.9%, a Calculated hemolysis ratio ([1]; human individual # 5, 1% erythrocytes, AMPs 100 µM, 60 min 37 °C, 405 nm, pos. 10% Triton X, neg. PBS, 3 x 2 replicates) of 11 ± 1% and a Calculated hemolysis ratio ([1]; human individual # 6, 1% erythrocytes, AMPs 100 µM, 60 min 37 °C, 405 nm, pos. 10% Triton X, neg. PBS, 3 x 2 replicates) of 6.4 ± 0.7%. The Calculated hemolysis ratio ([1]; human individual # 7, 1% erythrocytes, AMPs 100 µM, 60 min 37 °C, 405 nm, pos. 10% Triton X, neg. PBS, 3 x 2 replicates) was 8.9 ± 0.8%, the Calculated hemolysis ratio ([1]; human individual # 8, 1% erythrocytes, AMPs 100 µM, 60 min 37 °C, 405 nm, pos. 10% Triton X, neg. PBS, 3 x 2 replicates) was 9.1 ± 1.1% and the Calculated hemolysis ratio ([1]; human individual # 9, 1% erythrocytes, AMPs 100 µM, 60 min 37 °C, 405 nm, pos. 10% Triton X, neg. PBS, 3 x 2 replicates) was 9.6 ± 1%. For the same molecule, the Calculated hemolysis ratio ([1]; human individual # 10, 1% erythrocytes, AMPs 100 µM, 60 min 37 °C, 405 nm, pos. 10% Triton X, neg. PBS, 3 x 2 replicates) was 9.8 ± 0.7%, the Calculated hemolysis ratio ([1]; incubated in polypropylene tubes, 1% washed human erythrocytes, peptides 100 μM, 60 min 37 °C, 405 nm, pos. 10% Triton X-100, neg. PBS, 3 x 2 replicates) was 8.2 ± 2.6% and the Calculated hemolysis ratio ([1]; incubated in polystyrene tubes, 1% washed human erythrocytes, peptides 100 μM, 60 min 37 °C, 405 nm, pos. 10% Triton X-100, neg. PBS, 3 x 2 replicates) was 9.7 ± 3.4%. For the same molecule, the Calculated hemolysis ratio ([1]; incubation 15 min, 37 °C, 1% human erythrocytes, AMPs 100 µM, 405 nm, pos. 10% Triton X-100, neg. PBS, 3 biological x 2 technical replicates) was 7.8 ± 1.1%, the Calculated hemolysis ratio ([1]; incubation 30 min, 37 °C, 1% human erythrocytes, AMPs 100 µM, 405 nm, pos. 10% Triton X-100, neg. PBS, 3 biological x 2 technical replicates) was 7.4 ± 1.2% and the Calculated hemolysis ratio ([1]; incubation 90 min, 37 °C, 1% human erythrocytes, AMPs 100 µM, 405 nm, pos. 10% Triton X-100, neg. PBS, 3 biological x 2 technical replicates) was 8 ± 0.8%. The Calculated hemolysis ratio ([1]; incubation 120 min, 37 °C, 1% human erythrocytes, AMPs 100 µM, 405 nm, pos. 10% Triton X-100, neg. PBS, 3 biological x 2 technical replicates) was 8.6 ± 1.4%, the “Observed hemolytic properties (qualitative)” value ([1]; reason for choice of the AMPs) was “low” and the Calculated hemolysis ratio ([1]; total incubation volume 100 μL, 1% washed human erythrocytes, peptides 100 μM, 60 min 37 °C, 405 nm, pos. 10% Triton X-100, neg. PBS, 3 x 2 replicates) was 9.7 ± 3.4%. The Calculated hemolysis ratio ([1]; total incubation volume 500 μL, 1% washed human erythrocytes, peptides 100 μM, 60 min 37 °C, 405 nm, pos. 10% Triton X-100, neg. PBS, 3 x 2 replicates) was 8.8 ± 3.9%, the “Fluorescence intensity per cell of remaining intact cells (live/dead stain)” value [2] was “low fluorescence” and the “Minimum inhibitory concentration (E. coli)” value (E. coli) was 4 µM (≈ 10 µg/mL). The Calculated hemolysis ratio (human whole blood; OD 405 nm (signal saturated), pos. 10% SDS) was 0.4 ± 0.2%, the Calculated hemolysis ratio (human whole blood; OD 530 nm, pos. 10% SDS) was 0.2% and the Calculated hemolysis ratio (human whole blood; OD 570 nm, pos. 10% Triton X-100 (table title; text says 10% SDS)) was −0.1%. The “Fold reduction in HR in human whole blood in comparison with washed erythrocytes measured at 405 nm” value (human whole blood; whole blood HR with 10% SDS as positive control (Table 5) vs washed erythrocytes (Table 6), 100 μM) was over 41 fold, the Hemolysis ratio (rabbit erythrocytes; Table S4: washed rabbit erythrocytes, OD 405 nm) was 4.6 +/- 0.7% and the Hemolysis ratio (rabbit erythrocytes; washed rabbit erythrocytes, OD 530 nm) was 1.7 +/- 3.6%. The Hemolysis ratio (rabbit erythrocytes; washed rabbit erythrocytes, OD 570 nm) was 2.2 +/- 1.4%, the Hemolysis ratio (mouse erythrocytes; Table S4: washed mouse erythrocytes, OD 405 nm) was 0.1 +/- 2% and the Hemolysis ratio (mouse erythrocytes; washed mouse erythrocytes, OD 530 nm) was -11.8 +/- 8%. The Hemolysis ratio (mouse erythrocytes; washed mouse erythrocytes, OD 570 nm) was -2.7 +/- 1.9%, the Hemolysis ratio (rat erythrocytes; Table S4: washed rat erythrocytes, OD 405 nm) was 5.2 +/- 1.9% and the Hemolysis ratio (rat erythrocytes; washed rat erythrocytes, OD 530 nm) was 2.6 +/- 5.7%. For the same molecule, the Hemolysis ratio (rat erythrocytes; washed rat erythrocytes, OD 570 nm) was 3.3 +/- 3%, the “Fold decrease of hemolytic effect in rabbit whole blood vs washed rabbit erythrocytes” value (rabbit whole blood; cf. Tables S3 and S4, 100 μM) was 23 fold and the Hemolysis ratio (rabbit whole blood; OD 405 nm, neg. PBS) was 0.6 +/- 3.2%. The Hemolysis ratio (rabbit whole blood; OD 530 nm, pos. 10% SDS, neg. PBS) was 0.2 +/- 0.6% and the Hemolysis ratio (rabbit whole blood; OD 570 nm, pos. 10% Triton X-100, neg. PBS) was 0.2 +/- 0.5%.
